According to ChEMBL document CHEMBL1124604, “Synthesis and benzodiazepine receptor affinities of rigid analogues of 3-carboxy-beta-carbolines: demonstration that the benzodiazepine receptor recognizes preferentially the s-cis conformation of the 3-carboxy group” (J Med Chem, 1989):

Test: In vitro inhibition of [3H]flunitrazepam binding to GABA-A receptor of rat cerebral cortex membranes
Format: cell membranes, Membrane

Q: With `O=C1OCCc2c1[nH]cc1nc3ccccc3c2-1` as the compound, how does the IC50 read?
A: 0.042 µM

Q: With `CCOC(=O)c1cc2c(cn1)[nH]c1ccccc12` as the compound, how does the IC50 read?
A: 0.007 µM

Q: For `CCc1c(C(=O)OC)[nH]cc2nc3ccccc3c1-2`, which IC50 is on record?
A: 0.027 µM

Q: Which IC50 does the source give for `COC(=O)c1cc2c(cn1)[nH]c1ccccc12` [BETA-CCM] here?
A: 0.0035 µM

Q: With `CCc1c(C(=O)NC)[nH]cc2nc3ccccc3c1-2` as the compound, how does the IC50 read?
A: > 10 µM

Q: With `CNC(=O)c1cc2c(cn1)[nH]c1ccccc12` as the compound, how does the IC50 read?
A: 0.197 µM

Q: For `O=C1NCCc2c1[nH]cc1nc3ccccc3c2-1`, which IC50 is on record?
A: 0.15 µM
